Test results: PubChem BioAssay AID248 (DTP/NCI, 2004)
Where “and” joins values, the source holds several entries; their conditions need not be identical. Equal values may be shown once. Inconclusive results and toxic doses are left out. Rule as the data show it: active = T/C of 150% or more; inactive = T/C below 125%.

Test system: L1210 leukemia ip in BDF1 mice, survival T/C
Test: NCI In Vivo Anticancer Drug Screen. Data for tumor model L1210 Leukemia (intraperitoneal) in B6D2F1 (BDF1) mice
Settings: endpoint: mean survival time, higher = longer survival
Summary of the method: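 Survival endpoint. Drug-treated group vs vehicle group, expressed as T divided by C. Tumor passaged by transplantation.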

[1] = dose: 50.0 mg/kg/injection, schedule: Q01DX009 (ip), vehicle: saline with Tween-80
[2] = dose: 100.0 mg/kg/injection, schedule: Q01DX009 (ip), vehicle: saline with Tween-80
[3] = dose: 200.0 mg/kg/injection, schedule: Q01DX009 (ip), vehicle: saline with Tween-80
[4] = dose: 400.0 mg/kg/injection, schedule: Q01DX009 (ip), vehicle: saline with Tween-80
[5] = dose: 100.0 mg/kg/injection, schedule: Q04DX003 (ip), vehicle: saline with Tween-80
[6] = dose: 200.0 mg/kg/injection, schedule: Q04DX003 (ip), vehicle: saline with Tween-80
[7] = dose: 400.0 mg/kg/injection, schedule: Q04DX003 (ip), vehicle: saline with Tween-80
[8] = dose: 100.0 mg/kg/injection, schedule: Q01DX001 (ip), vehicle: saline with Tween-80
[9] = dose: 100.0 mg/kg/injection, schedule: Q01DX001 (ip), vehicle: saline
[10] = dose: 100.0 mg/kg/injection, schedule: Q01DX009 (ip), vehicle: Klucel (hydroxypropylcellulose) (HPC)
[11] = dose: 200.0 mg/kg/injection, schedule: Q01DX009 (ip), vehicle: Klucel (hydroxypropylcellulose) (HPC)
[12] = dose: 400.0 mg/kg/injection, schedule: Q01DX009 (ip), vehicle: Klucel (hydroxypropylcellulose) (HPC)
[13] = dose: 200.0 mg/kg/injection, schedule: Q01DX001 (ip), vehicle: saline
[14] = dose: 400.0 mg/kg/injection, schedule: Q01DX001 (ip), vehicle: saline

Measured: T/C

O=[N+]([O-])c1ccc2c(ccn2C2OCC(O)C(O)C2O)c1 (stereo unspecified)
inactive: dose: 25.0 mg/kg/injection, schedule: Q01DX005 (ip), vehicle: saline 94 % of control and 96 % of control | dose: 50.0 mg/kg/injection, schedule: Q01DX005 (ip), vehicle: saline 96 % of control and 92 % of control | [1] 98 % of control | dose: 100.0 mg/kg/injection, schedule: Q01DX005 (ip), vehicle: saline 93 % of control and 91 % of control | [2] 98 % of control | [3] 102 % of control | [4] 111 % of control

CN(C)/N=N/c1nc[nH]c1C(=O)NCCc1ccccc1
inactive: dose: 100.0 mg/kg/injection, schedule: Q01DX001 (ip), vehicle: other 108 % of control | dose: 200.0 mg/kg/injection, schedule: Q01DX001 (ip), vehicle: other 108 % of control

O=C(O)CNC(=O)/C(=C\c1[nH]c(=O)[nH]c(=O)c1Br)NC(=O)c1ccccc1
inactive: [2] 92 % of control | [5] 104 % of control | [3] 91 % of control | [6] 104 % of control | [4] 96 % of control | [7] 107 % of control

CCOc1ccccc1NC(=S)Nc1ccc([N+](=O)[O-])cc1
inactive: [1] 92 % of control | [2] 92 % of control | [3] 95 % of control

c1ccc2nc(C3CO3)cnc2c1 (stereo unspecified)
inactive: [5] 100 % of control | [6] 91 % of control | [7] 99 % of control

O=C1CC23CCC12CCCC3=O (stereo unspecified)
inactive: dose: 100.0 mg/kg/injection, schedule: Q04DX002 (ip), vehicle: saline with Tween-80 100 % of control | dose: 200.0 mg/kg/injection, schedule: Q04DX002 (ip), vehicle: saline with Tween-80 93 % of control | dose: 400.0 mg/kg/injection, schedule: Q04DX002 (ip), vehicle: saline with Tween-80 97 % of control

OCCNCc1ccccc1
inactive: [2] 93 % of control | dose: 100.0 mg/kg/injection, schedule: Q01DX009 (ip), vehicle: water 95 % of control | dose: 100.0 mg/kg/injection, schedule: Q04DX003 (ip), vehicle: water 104 % of control | [3] 102 % of control | dose: 200.0 mg/kg/injection, schedule: Q01DX009 (ip), vehicle: water 103 % of control | dose: 200.0 mg/kg/injection, schedule: Q04DX003 (ip), vehicle: water 102 % of control | [4] 86 % of control | dose: 400.0 mg/kg/injection, schedule: Q01DX009 (ip), vehicle: water 105 % of control | dose: 400.0 mg/kg/injection, schedule: Q04DX003 (ip), vehicle: water 102 % of control

CC(=O)OC(OC(C)=O)c1ccccn1
inactive: dose: 75.0 mg/kg/injection, schedule: Q01DX001 (ip), vehicle: saline 94 % of control | dose: 150.0 mg/kg/injection, schedule: Q01DX001 (ip), vehicle: saline 96 % of control | dose: 300.0 mg/kg/injection, schedule: Q01DX001 (ip), vehicle: saline 93 % of control

Cc1c(N=NN(C)C)c(=O)n(-c2ccccc2)n1C
inactive: dose: 18.0 mg/kg/injection, schedule: Q01DX001 (ip), vehicle: saline with Tween-80 100 % of control | dose: 18.0 mg/kg/injection, schedule: Q04DX003 (ip), vehicle: saline with Tween-80 107 % of control | dose: 25.0 mg/kg/injection, schedule: Q01DX009 (ip), vehicle: saline with Tween-80 105 % of control | dose: 37.0 mg/kg/injection, schedule: Q01DX001 (ip), vehicle: saline with Tween-80 116 % of control | dose: 37.0 mg/kg/injection, schedule: Q04DX003 (ip), vehicle: saline with Tween-80 108 % of control | [1] 114 % of control | dose: 75.0 mg/kg/injection, schedule: Q01DX001 (ip), vehicle: saline with Tween-80 119 % of control | dose: 75.0 mg/kg/injection, schedule: Q04DX003 (ip), vehicle: saline with Tween-80 112 % of control | [8] 97 % of control

S=C(Nc1ccccc1)Nc1ccc(NC(=S)Nc2ccccc2)cc1
inactive: [8] 96 % of control | dose: 200.0 mg/kg/injection, schedule: Q01DX001 (ip), vehicle: saline with Tween-80 92 % of control

CC(C)(O)C(CO)c1ccccc1 (stereo unspecified)
inactive: [9] 96 % of control

OC1(C2CCCCC2)C2CCCC1CCC2 (stereo unspecified)
inactive: dose: 100.0 mg/kg/injection, schedule: Q01DX009 (ip), vehicle: other 94 % of control | [5] 99 % of control | dose: 200.0 mg/kg/injection, schedule: Q01DX009 (ip), vehicle: other 94 % of control | [6] 92 % of control | dose: 400.0 mg/kg/injection, schedule: Q01DX009 (ip), vehicle: other 101 % of control | [7] 103 % of control

O=P(NC12CC3CC(CC(C3)C1)C2)(c1ccccc1)N1CC1 (stereo unspecified)
inactive: dose: 100.0 mg/kg/injection, schedule: Q04DX003 (ip), vehicle: Klucel (hydroxypropylcellulose) (HPC) 86 % of control | dose: 200.0 mg/kg/injection, schedule: Q04DX003 (ip), vehicle: Klucel (hydroxypropylcellulose) (HPC) 88 % of control | dose: 400.0 mg/kg/injection, schedule: Q04DX003 (ip), vehicle: Klucel (hydroxypropylcellulose) (HPC) 89 % of control

CCCCCCCCC(Br)C(Br)CCCCCCCC(=O)O (stereo unspecified)
inactive: dose: 25.0 mg/kg/injection, schedule: Q04DX002 (ip), vehicle: saline with Tween-80 93 % of control | dose: 50.0 mg/kg/injection, schedule: Q04DX002 (ip), vehicle: saline with Tween-80 96 % of control

COc1ccc(/C=N/NC(=O)c2ccc(O)cc2)cc1
inactive: [10] 100 % of control | [11] 98 % of control | [12] 94 % of control

CC(C)=C(CO)CCC(C)C
inactive: [1] 100 % of control | [2] 94 % of control | [3] 89 % of control

CC1(C)N=C(N)N=C(N)N1c1ccc(OCCCc2ccccc2)c([N+](=O)[O-])c1
inactive: [10] 103 % of control | [11] 103 % of control

CCOC(=O)C(CC)(OC(C)=O)C(=O)C(O)C1c2nc3ccccc3cc2CN1C(=O)CCOCc1ccccc1 (stereo unspecified)
inactive: dose: 10.0 mg/kg/injection, schedule: Q07DX002 (ip), vehicle: alcohol 99 % of control | dose: 20.0 mg/kg/injection, schedule: Q07DX002 (ip), vehicle: alcohol 101 % of control | dose: 40.0 mg/kg/injection, schedule: Q07DX002 (ip), vehicle: alcohol 106 % of control | dose: 80.0 mg/kg/injection, schedule: Q07DX002 (ip), vehicle: alcohol 94 % of control

CC(=O)Nc1c(Cl)cc(I)cc1Cl
inactive: [10] 103 % of control | [11] 103 % of control | [12] 97 % of control

O=c1c(O)c(-c2ccc(Cl)cc2)oc2ccccc12
inactive: dose: 50.0 mg/kg/injection, schedule: Q01DX001 (ip), vehicle: saline 87 % of control | [9] 93 % of control | [13] 93 % of control | [14] 98 % of control

CCCCCCC[CH2][Sn](=[O])[CH2]CCCCCCC
inactive: dose: 3.12 mg/kg/injection, schedule: Q01DX009 (ip), vehicle: saline with Tween-80 95 % of control | dose: 6.25 mg/kg/injection, schedule: Q01DX009 (ip), vehicle: saline with Tween-80 100 % of control | dose: 100.0 mg/kg/injection, schedule: Q04DX003 (ip), vehicle: acetone 102 % of control

C=C1c2ccccc2N(C)C1(COc1ccc(Cl)cc1)OC(=O)c1cccc(Cl)c1 (stereo unspecified)
inactive: dose: 100.0 mg/kg/injection, schedule: Q04DX002 (ip), vehicle: saline 88 % of control | dose: 200.0 mg/kg/injection, schedule: Q04DX002 (ip), vehicle: saline 98 % of control | dose: 400.0 mg/kg/injection, schedule: Q04DX002 (ip), vehicle: saline 98 % of control

O=C(NCCNC(=O)c1ccncc1)c1ccccc1
inactive: dose: 100.0 mg/kg/injection, schedule: Q01DX001 (ip), vehicle: carboxymethylcellulose (CMC) 93 % of control | dose: 200.0 mg/kg/injection, schedule: Q01DX001 (ip), vehicle: carboxymethylcellulose (CMC) 104 % of control | dose: 400.0 mg/kg/injection, schedule: Q01DX001 (ip), vehicle: carboxymethylcellulose (CMC) 98 % of control

COc1cc(S(=O)(=O)F)ccc1NC(=O)/C=C/c1ccc([N+](=O)[O-])cc1
inactive: [9] 103 % of control | [13] 94 % of control | [14] 100 % of control

CCOC(=O)c1ccc(NC(=O)Nc2ccccc2Cl)cc1
inactive: [2] 93 % of control | [5] 91 % of control | [3] 87 % of control | [6] 93 % of control | [4] 92 % of control | [7] 94 % of control
